In the supplement of paper PMC10307832:

Key:
Assay in all cases: relative viability (nuclei count vs DMSO), 5 days (fraction); higher = more cells survive
[1] = compound: Cc1ccc(Nc2nccc(N(C)c3ccc4c(C)n(C)nc4c3)n2)cc1S(N)(=O)=O [Pazopanib] + CS(=O)(=O)CCNCc1ccc(-c2ccc3ncnc(Nc4ccc(OCc5cccc(F)c5)c(Cl)c4)c3c2)o1 [Lapatinib] (partner 2 µM)
How it was run: (§1)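 Lung cancer cell lines in 1536-well plates got either a single drug or a fixed anchor-drug dose together with five library-drug doses (not always all listed) in √10 steps, by pin tool, on the day after seeding. Nuclei were counted after 5 days, and relative viability is the treated-to-vehicle ratio of nuclei counts. Values are medians of duplicate plates.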

[2] = compound: Cc1ccc(Nc2nccc(N(C)c3ccc4c(C)n(C)nc4c3)n2)cc1S(N)(=O)=O [Pazopanib] + Cc1nc(NC(=O)N2CCC[C@H]2C(N)=O)sc1-c1ccnc(C(C)(C)C(F)(F)F)c1 [Alpelisib] (partner 2 µM)
How it was run: as §1

[3] = compound: Cc1ccc(C(=O)Nc2ccc(CN3CCN(C)CC3)c(C(F)(F)F)c2)cc1C#Cc1cnc2cccnn12 [Ponatinib] + CS(=O)(=O)CCNCc1ccc(-c2ccc3ncnc(Nc4ccc(OCc5cccc(F)c5)c(Cl)c4)c3c2)o1 [Lapatinib] (partner 2 µM)
How it was run: as §1

[4] = compound: Cc1ccc(C(=O)Nc2ccc(CN3CCN(C)CC3)c(C(F)(F)F)c2)cc1C#Cc1cnc2cccnn12 [Ponatinib] + CS(=O)(=O)N1CCN(Cc2cc3nc(-c4cccc5[nH]ncc45)nc(N4CCOCC4)c3s2)CC1 [Pictilisib] (partner 1 µM)
How it was run: as §1

Cell Line	relative viability ([1]; first compound 0.01 µM)	relative viability ([1]; first compound 0.03162 µM)	relative viability ([1]; first compound 0.1 µM)	relative viability ([1]; first compound 0.3162 µM)	relative viability ([1]; first compound 1 µM)	relative viability ([2]; first compound 0.01 µM)	relative viability ([2]; first compound 0.03162 µM)	relative viability ([2]; first compound 0.1 µM)	relative viability ([2]; first compound 0.3162 µM)	relative viability ([2]; first compound 1 µM)	relative viability ([3]; first compound 0.002 µM)	relative viability ([3]; first compound 0.006325 µM)	relative viability ([3]; first compound 0.06325 µM)	relative viability ([3]; first compound 0.2 µM)	relative viability ([4]; first compound 0.002 µM)	relative viability ([4]; first compound 0.006325 µM)	relative viability ([4]; first compound 0.06325 µM)	relative viability ([4]; first compound 0.2 µM)
NCI-H1299	0.928	0.962	0.969	1.02	0.894	1.07	0.976	1.12	1	1.06	0.956	0.968	0.979	0.934	0.894	0.874	0.988	0.658
NCI-H2228	1.32	1.15	0.979	1.08	0.929	0.783	0.89	1.02	0.769	0.643	1.07	1.51	1.15	1.13	0.606	0.698	0.401	0.319
IA-LM	0.703	–	0.944	0.809	0.52	0.665	0.856	0.876	0.669	0.509	0.897	0.67	0.77	0.721	0.428	0.386	0.572	0.442
NCI-H650	0.814	1.08	0.933	0.909	1.36	1.06	1.35	1.19	1.11	1.08	0.886	0.835	0.819	0.854	0.843	0.739	0.758	0.88
NCI-H1395	0.788	1.27	0.981	1.05	1.1	1.02	1.03	1.02	1.12	1.17	–	0.888	0.782	0.753	–	0.696	0.657	0.581
NCI-H358	0.482	0.53	0.356	0.442	0.489	1.06	0.892	0.91	0.864	0.922	0.468	0.431	0.393	0.378	0.318	0.429	0.369	0.331
NCI-H2085	0.511	0.794	0.762	0.785	0.853	0.964	0.974	1.02	0.995	1.05	0.733	0.815	0.843	0.879	0.489	0.477	0.451	0.488
NCI-H838	0.961	1.09	0.97	1.02	1.13	1.01	1.02	1.07	1.08	1.11	0.911	1.04	1.03	0.813	0.564	0.505	0.455	0.455
NCI-H460	1.05	1.06	1.04	0.946	1.15	0.432	0.529	0.52	0.531	0.6	0.942	0.853	1.08	0.876	0.383	0.441	0.469	0.452
LOU-NH91	0.646	0.744	0.748	0.759	0.872	0.754	0.729	0.774	0.816	0.746	0.717	0.788	0.755	0.709	0.554	0.567	0.512	0.521
NCI-H322M	0.587	0.645	0.653	0.632	0.618	0.846	1.03	0.779	0.632	0.926	0.636	0.61	0.659	0.518	0.523	0.522	0.53	0.536
NCI-H520	–	0.96	0.766	0.859	0.921	–	1.04	0.884	0.873	0.816	0.725	0.801	0.688	0.531	0.253	0.248	0.259	0.249
NCI-H661	0.538	0.629	0.476	0.431	0.648	0.549	0.581	0.595	0.669	0.866	0.437	0.523	0.592	0.361	0.404	0.406	0.389	0.482
NCI-H727	0.79	0.988	0.801	0.878	0.891	0.634	0.693	0.637	0.664	0.717	0.794	0.825	1.11	0.77	0.367	0.514	0.356	0.333
NCI-H1944	0.561	0.84	0.949	0.923	0.953	0.751	0.838	0.839	0.863	0.982	0.775	0.807	0.915	0.849	0.319	0.407	0.403	0.374
NCI-H1734	0.837	0.777	1.13	1.18	1.09	0.632	0.702	0.743	0.65	0.769	0.955	0.991	1.09	0.888	0.421	0.456	0.414	0.365
LXF-289	0.908	0.935	0.902	0.909	0.897	1.06	1.04	1.02	1.03	1.09	0.855	0.895	0.894	0.859	0.737	0.795	0.883	0.777
H3255	0.203	0.26	0.248	0.285	0.256	0.612	0.743	0.833	0.695	0.741	0.222	0.268	0.263	0.21	0.466	0.478	0.456	0.447
